Here are results for 21 compounds from PMC3991331, “Fragment screening reveals salicylic hydroxamic acid as an inhibitor of Trypanosoma brucei GPI GlcNAc-PI de-N-acetylase” (Carbohydrate Research, 2014).

The target of series [1] is T. brucei de-N-acetylase (cell-free system) (Trypanosoma brucei, UniProt Q8I8A5). The experiment in a line: Mass spectrometry based activity assay, trypanosome cell-free system. The note with it: for inhibition at 1000 µM: read-out: Inhibition at 1 mM (%); for ligand efficiency: from IC50 in cell-free system. The format is biochemical. Here is the method:
Inhibition assays were performed in 100 μL final volume, with 1% v/v DMSO with or without inhibitor. […] Enriched glycolipids were analysed by liquid chromatography coupled to an electrospray tandem mass spectrometer (LC–MS/MS). Samples (40 μL) were injected on to a 10 × 1 mm C18 column (ACE, 5 μM) and eluted using a binary gradient of 5–80% propan-1-ol in 5 mM NH4OAc (Dionex Ultimate 3000). The gradient consisted of 2 min 0% B, 2–4 min 0–100% B, 4–8 min 100%, 8–9 min 100–0% B, 9–10 min 0% B where buffer A consisted of 5% propan-1-ol, 5 mM NH4OAc and buffer B 80% propan-1-ol, 5 mM NH4OAc. The glycolipids were analysed on an electrospray triple quadrapole mass spectrometer (Micromass Quattro Ultima) in multiple reaction monitoring mode. […] Inhibitor IC50 values were calculated using a four-parameter fit of eight-point potency curves derived from three independent experiments, and are quoted with standard deviation. […]

For series [2], the system named is T. brucei GPI pathway (cell-free system). The experiment in a line: Trypanosome cell-free system assay, [3H]-mannose incorporation into GPI intermediates (HPTLC, fluorography). The note with it: GlcNAc-IPC18 10 μM; GDP-[3H]-mannose; tested at 0, 100, 300, 1000 μM.
Experimental: Trypanosome cell-free system assays, where the formation of GPI precursors is monitored by following the incorporation of [^3H]-mannose were analysed using high-performance liquid chromatography and fluorography as described previously.[13]
Priming the cell-free system with GlcAc-IPC18 in the presence of GDP-[^3H]-mannose stimulates the production of radiolabelled mannosylated GPI intermediates that can be separated by high performance thin-layer chromatography and visualised by fluorography.
(A) The T. brucei cell-free system was incubated with GlcNAc-PI (10 μM) in the presence of 0, 100, 300, or 1000 μM of 1 and 0.5 μCi of GDP-[^3H]-mannose to stimulate the production of radiolabelled mannosylated GPI intermediates. Glycolipid products were extracted, separated by high-performance thin-layer chromatography, and visualised by fluorography. DPM–dolichol-phosphate-mannose, M1–Man1GlcN-IPC18, M2–Man2GlcN-IPC18, M3–Man3GlcN-IPC18, A′–EtNPMan3GlcN-IPC18. (B) Inhibition of the turnover of GlcNAc-IPC18 (10 μM) by the presence of 1 measured in the T. brucei cell-free system in the LC–MS/MS assay.
Series [3] relates to bloodstream form T. brucei. Further details: method as in PMID 986688, PMID 17126803. The note with it: cited from earlier work.
The target of series [4] is T1, recombinant T. brucei GlcNAc-PI de-N-acetylase (GST-TbGPI12) (Trypanosoma brucei, UniProt Q8I8A5). The experiment in a line: Mass spectrometry based activity assay, recombinant GST-TbGPI12. The class given is biochemical. Here is the method:
Inhibition assays were performed in 100 μL final volume, with 1% v/v DMSO with or without inhibitor. […]. Enriched glycolipids were analysed by liquid chromatography coupled to an electrospray tandem mass spectrometer (LC–MS/MS). Samples (40 μL) were injected on to a 10 × 1 mm C18 column (ACE, 5 μM) and eluted using a binary gradient of 5–80% propan-1-ol in 5 mM NH4OAc (Dionex Ultimate 3000). The gradient consisted of 2 min 0% B, 2–4 min 0–100% B, 4–8 min 100%, 8–9 min 100–0% B, 9–10 min 0% B where buffer A consisted of 5% propan-1-ol, 5 mM NH4OAc and buffer B 80% propan-1-ol, 5 mM NH4OAc. The glycolipids were analysed on an electrospray triple quadrapole mass spectrometer (Micromass Quattro Ultima) in multiple reaction monitoring mode. The turnover of the substrate GlcNAc-IPC18 (m/z 715 > 223) to GlcN-IPC18 (m/z 672 > 223) was used to calculate the percentage of substrate conversion to product in a given sample.[6] Inhibitor IC50 values were calculated using a four-parameter fit of eight-point potency curves derived from three independent experiments, and are quoted with standard deviation. […]
Figure 2 T. brucei GlcNAc-PI de-N-acetylase inhibitors. The activity of the recombinant enzyme against the synthetic substrate D-glucosamine-α-(1-6)-D-myo-inositol-1-octadecyl phosphate was measured using a mass spectrometry based assay (A) Fragments were screened at 1 mM in duplicate. […]

For series [5], the target named is T1, recombinant T. brucei GlcNAc-PI de-N-acetylase (GST-TbGPI12). Further details: method as in PMID 22222041. Conditions: previously reported glucocyclitol-phospholipid substrate analogue; cited from earlier work.
Where [6] appears, read: 1 mM, cell-free system, Table 1, commercially available analogues of 1.
[7] abbreviates: 1 mM, fragment library screen, Table S1, footnote: cell-free system.

Molecules are shown by their SMILES. Where two headings read alike, the source gives them in different places. Some results are limits rather than exact numbers.

Chain of T. brucei de-N-acetylase (cell-free system) (Q8I8A5 entry or part of it): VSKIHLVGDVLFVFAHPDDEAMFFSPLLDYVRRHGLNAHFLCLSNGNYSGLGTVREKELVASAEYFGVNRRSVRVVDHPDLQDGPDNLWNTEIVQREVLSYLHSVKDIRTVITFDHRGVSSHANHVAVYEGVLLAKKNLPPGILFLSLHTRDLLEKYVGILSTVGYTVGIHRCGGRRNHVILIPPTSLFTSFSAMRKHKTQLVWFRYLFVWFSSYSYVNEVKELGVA
T1 sequence (Q8I8A5 entry or part of it): as above

As a reminder, the melting point is the temperature, or range, at which the solid turns liquid. As usually defined, the inhibition is the relative decrease from the control value, in per cent. With `Cc1ccc(C(=O)Nc2ccc(O)c(C(=O)NO)c2)cc1` [compound 22, N,2-Dihydroxy-5-(4-methylbenzamido)benzamide], the melting point was 209 °C. Also, the inhibition at 1000 µM in series [1] stood at 62 ± 24%.
`O=C(NO)c1ccccc1Br` [compound 4]: in series [1] (setting [6]), the inhibition at 1000 µM is -4 ± 15%.
`O=C(Nc1ccc(O)c(C(=O)NO)c1)c1ccc2c(c1)OCO2` [compound 27, N-(4-Hydroxy-3-(hydroxycarbamoyl)phenyl)benzo[d][1,3]dioxole-5-carboxamide] showed a melting point of 209 °C. Besides, the inhibition at 1000 µM in series [1] was 86 ± 11%.
Regarding `O=C(NO)C1CCN(c2ncc(C(F)(F)F)cc2Cl)CC1` [compound 513], in series [1] (setting [7]), the inhibition at 1000 µM amounted to 54 ± 4%.
On the same count and under the same terms, the result for `O=C(CCCOc1ccc(Cl)cc1Cl)NO` [compound 508] reads 67 ± 20%.
Consider `O=C(NO)c1cc(NC(=O)C2CCCCC2)ccc1O` [compound 20, 5-(Cyclohexanecarboxamido)-N,2-dihydroxybenzamide], for which the melting point is 229 to 230 °C. In addition, in series [1], the ligand efficiency was −0.30 kcal mol^−1 per non-hydrogen atom and the inhibition at 1000 µM amounted to 99 ± 1.6%.
For `O=C(COc1ccc(Cl)cc1Cl)NO` [compound 509], the inhibition at 1000 µM in series [1] was determined as 62 ± 0.3%.
Consider `O=C(NO)c1ccc(Br)cc1O` [compound 6], for which the inhibition at 1000 µM in series [1] (setting [6]) came to 86 ± 2%.
The same measure, in the same setting: the result for `O=C(NO)c1ccc(Br)cc1` [compound 7] reads 9.6 ± 15%.
Regarding `O=C(NO)c1cc(NC(=O)C2CCOCC2)ccc1O` [compound 26, N-(4-Hydroxy-3-(hydroxycarbamoyl)phenyl)tetrahydro-2H-pyran-4-carboxamide], the melting point is 209 °C. The inhibition at 1000 µM in series [1] was 56 ± 8.3%.
In turn, `O=C(Nc1ccc(O)c(C(=O)NO)c1)c1ccc(-c2ccccc2)cc1` [compound 25, N-(4-Hydroxy-3-(hydroxycarbamoyl)phenyl)-[1,1'-biphenyl]-4-carboxamide] displayed a melting point of 216 °C. Further, the inhibition at 1000 µM in series [1] amounted to 75 ± 7%.
As to `O=C(CCc1nc(-c2ccc(Cl)cc2)no1)NO` [compound 514], the inhibition at 1000 µM in series [1] (setting [7]) was 54 ± 9%.
For the compound `CCCCCCCCCCCCCCCCCC(=O)Nc1ccc(O)c(C(=O)NO)c1` [compound 23, N,2-Dihydroxy-5-stearamidobenzamide], the melting point lay in the range of 185 to 187 °C. Also, the inhibition at 1000 µM in series [1] was found to be 25 ± 14%.
As usually defined, the IC50 is the concentration that gives 50% inhibition. As to `O=C(NO)c1ccccc1O` [compound 1, salicylic hydroxamic acid], the “concentration that prevented priming of the cell-free system with GlcNAc-IPC18” value in series [2] was above 300 µM. Besides, in series [3], the “toxicity in vivo to bloodstream form T. brucei” value is recorded as “toxic in vivo”. Moreover, the inhibition at 1000 µM in series [1] was determined as 97 ± 2%. In addition, the IC50 in series [4] came out at 63 ± 4 µM.
For `O=C(NO)c1ccccc1` [compound 3], the inhibition at 1000 µM in series [1] (setting [6]) was -6 ± 14%.
Consider `O=C(O)c1ccccc1O` [compound 2], for which the inhibition at 1000 µM in series [1] was 25 ± 1%.
Consider `CCCCCCCCCCCCCCCCCCOP(=O)(O)O[C@@H]1CCCC[C@H]1O[C@@H]1O[C@H](CO)[C@@H](O)[C@H](O)[C@H]1CC(=O)NO` [1R,2R-1-O-[2-C-(carboxymethyl N-hydroxyamide)-2-deoxy-β-D-glucopyranosyl]-cyclohexanediol 2-(n-octadecylphosphate), reference compound], for which the IC50 in series [5] was 19 ± 0.5 µM. In addition, the ligand efficiency in series [4] (from the previously reported IC50 of ref 13) is −0.13 kcal mol^−1 per non-hydrogen atom.
Take `CC(=O)N1CCC(C(=O)Nc2ccc(O)c(C(=O)NO)c2)CC1` [compound 24, 1-Acetyl-N-(4-hydroxy-3-(hydroxycarbamoyl)phenyl)piperidine-4-carboxamide]: the melting point is 211 to 212 °C. Moreover, in series [1], the inhibition at 1000 µM was found to be 40 ± 17%.
With `Nc1ccccc1C(=O)NO` [compound 5], the inhibition at 1000 µM in series [1] (setting [6]) was -5 ± 2%.
As to `COc1ccc(NC(=O)NO)cc1` [compound 503], the inhibition at 1000 µM in series [1] (setting [7]) stood at 53 ± 2%.
In turn, `O=C(Nc1ccc(O)c(C(=O)NO)c1)c1ccccc1` [compound 21, 5-Benzamido-N,2-dihydroxybenzamide] returned a melting point of 211 °C. In series [1], the ligand efficiency is recorded as −0.29 kcal mol^−1 per non-hydrogen atom and the inhibition at 1000 µM worked out at 96 ± 0.4%.
